Data reported in publication PMC6193035, “Novel small molecules affecting cell membrane as potential therapeutics for avian pathogenic Escherichia coli” (Scientific Reports, 2018).
In brackets after ≈: the same amount, converted by molar mass. Marks after values point to notes of the source that are not given here.

Tests used:
[1] = test system: APEC O78; assay: MIC and MBC determination in M63 media; format: cell-based, Escherichia coli; conditions: for MIC / MBC: Escherichia coli; for MBC: subculture on LB agar
Description: (§1) One microlitre SM of each concentration was transferred to each well of a 96-well plate containing 100 µL of the 0.05 OD600 adjusted APEC O78 culture in M63 media. Growth was monitored in Sunrise - Absorbance microplate reader as described above. MIC was indicated by lowest concentration of SM with non-elevated OD600 measurement. MBC was determined by absence of APEC growth on LB agar plate following subculture. […] Two independent experiments were conducted.

[2] = test system: APEC O1; assay: MIC and MBC determination in M63 media; format: cell-based; conditions: Escherichia coli
[3] = test system: APEC O2; assay: MIC and MBC determination in M63 media; format: cell-based; conditions: Escherichia coli
[4] = test system: APEC O8; assay: MIC and MBC determination in M63 media; format: cell-based; conditions: Escherichia coli
[5] = test system: APEC O15; assay: MIC and MBC determination in M63 media; format: cell-based; conditions: Escherichia coli
[6] = test system: APEC O35; assay: MIC and MBC determination in M63 media; format: cell-based; conditions: Escherichia coli
[7] = test system: APEC O115; assay: MIC and MBC determination in M63 media; format: cell-based; conditions: Escherichia coli
[8] = test system: APEC O109; assay: MIC and MBC determination in M63 media; format: cell-based; conditions: Escherichia coli
[9] = test system: APEC O78-53; assay: MIC and MBC determination in M63 media; format: cell-based; conditions: Escherichia coli; APEC O78-53, M63 media
Description: as §1

[10] = test system: APEC O1-63; assay: MIC and MBC determination in M63 media; format: cell-based; conditions: Escherichia coli; APEC O1-63, M63 media
[11] = test system: APEC O2-211; assay: MIC and MBC determination in M63 media; format: cell-based; conditions: Escherichia coli; APEC O2-211, M63 media
[12] = test system: biofilm embedded APEC O78; assay: MBEC High-throughput (HTP) assay; format: cell-based, Escherichia coli; conditions: 18 h challenge in M63 media
Description: The effect of cidal SMs against biofilm embedded APEC was determined using MBEC High-throughput (HTP) assay (Innovotech Inc., AB, Canada)[22]. Briefly, 150 μL of 0.05 OD600 adjusted APEC O78 culture was aliquoted into each well of the MBEC device containing polystyrene pegs and incubated at 37 °C for 36 h in LB media under stationary condition. […] The plate was incubated in the dark for 18 h at 37 °C with rotation at 110 rpm. The DMSO (1%) and […] media were used as positive and negative controls, respectively. Following incubation, MIC of SMs in challenged plate was recorded. The SMs exposed pegs were then transferred to a new 96-well plate containing PBS and sonicated for 30 mins (Aquasonic ultrasonic cleaner, VWR) to disrupt the biofilm. The sonicated suspensions were ten-fold serially diluted and plated on LB agar plate. Biofilm embedded APEC bacteria were enumerated and minimum biofilm eradication concentration (MBEC) of SMs were determined as described previously. Two independent experiments were conducted.

[13] = test system: APEC O78; assay: Bacterial cytological profiling by confocal microscopy; format: cell-based, Escherichia coli; conditions: 2X MBC, 2 h
Description: Confocal microscopy was used for bacterial cytological profiling (BCP) to identify the cellular pathways targeted by SMs as described previously. […] After incubation, treated cultures were centrifuged, washed, and resuspended in 100 µL PBS. FM4-64 (#T13320 Molecular Probes/Invitrogen) (1 µg/mL) and SYTO-9 (#S34854 Molecular Probes/Invitrogen) (5 µM) were added to the bacterial cultures and incubated for 45 mins at room temperature with shaking at 150 rpm. Cultures were then centrifuged, washed, and resuspended in PBS to 1/10th volume of the original cultures.

[14] = test system: APEC O78; assay: Crystal violet (CV) uptake assay; format: cell-based, Escherichia coli; conditions: 2X MBC, 30 mins; P < 0.05, Student's t-test
Description: (§2) Membrane permeability assays (crystal violet (CV) uptake and loss of 260/280 nm absorbing materials) were conducted as described previously. […] CV uptake was measured using the formula: (OD DMSO − OD SM/OD DMSO × 100). Two independent experiments in duplicates were conducted.

[15] = test system: APEC O78; assay: Loss of 260/280 nm absorbing materials assay; format: cell-based, Escherichia coli; conditions: 2X MBC, 1 h; for Absorbance 280 nm of treated supernatant: DMSO 2.58; for Absorbance 280 nm of treated supernatant / Absorbance 260 nm of treated supernatant: superscript a P < 0.05 vs DMSO; for Absorbance 260 nm of treated supernatant: DMSO 3.77
Description: as §2

[16] = test system: intracellular APEC O2 in Caco-2 cells; assay: Intracellular survival assay; format: cell-based, Escherichia coli; conditions: for minimal effective concentration: Escherichia coli, O2, Caco-2, 6 h treatment, read-out: SMs intracellular APEC clearance concentration; for concentration at which the SM significantly (P < 0.01) reduced intracellular APEC (superscript of t-statistic): O2, Caco-2, 6 h
Description: (§3) Intracellular survival assay was conducted as described previously[28],[29] to determine the effect of cidal SMs on APEC survival in phagocytic (HD11, THP-1) and non-phagocytic (Caco-2) cells. Briefly, mid-logarithmic phase grown APEC O78, O1, and O2 were washed and adjusted to 1 × 10^7 CFU/mL in cell culture incomplete media (no FBS and antibiotics). One-hundred microlitres adjusted APEC suspension was added at multiplicity of infection (MOI) 10 to wells of 96-well cell culture plate containing cultured macrophage (HD11, THP-1) and epithelial cells (Caco-2) and incubated for 1 h and 3 h, respectively. […] The cells were then lysed with 100 µL of 0.1% Triton X-100 for 5 mins, serially diluted, and plated on LB agar plate to enumerate viable bacteria. The intracellular bacteria in SMs treated wells were compared with DMSO (1%) treated wells. Two independent experiments in duplicate wells for each concentration of SMs were conducted.

[17] = test system: intracellular APEC O78 in Caco-2 cells; assay: Intracellular survival assay; format: cell-based, Escherichia coli; conditions: for minimal effective concentration: Escherichia coli, O78, Caco-2, 6 h treatment, read-out: SMs intracellular APEC clearance concentration; for intracellular APEC clearance concentration as multiple of MIC (superscript): O78, Caco-2; for concentration at which the SM significantly (P < 0.01) reduced intracellular APEC (superscript of t-statistic): O78, Caco-2, 6 h
Description: as §3

[18] = test system: intracellular APEC O78, O2, and O1 in infected Caco-2, HD11, and THP1 cells; assay: Intracellular survival assay, statements over all serotypes and cells; format: cell-based, Escherichia coli; conditions: for minimal effective concentration: Escherichia coli, 6 h, O78, O2 and O1, Caco-2, HD11, THP-1, read-out: concentration clearing intracellular APEC
Description: as §3

**Q.** What does the source list for `CCN1/C(=C/c2ccc3ccccc3[n+]2CC)C=Cc2ccccc21` [SM9]?
**A.** MIC [1]: 25 µM; MBC [1]: 50 µM; MBC [2]: 50 µM; MIC [2]: 25 µM; MBC [3]: 50 µM; MIC [3]: 25 µM; MBC [4]: 50 µM; MIC [4]: 25 µM; MBC [5]: 100 µM; MIC [5]: 25 µM; MBC [6]: 50 µM; MIC [6]: 25 µM; MBC [7]: 50 µM; MIC [7]: 25 µM; MBC [8]: 50 µM; MIC [8]: 25 µM; MBC [9]: 25 µM; MIC [9]: 25 µM; MBC [10]: 100 µM; MIC [10]: 50 µM; MBC [11]: 25 µM; MIC [11]: 25 µM; MBEC as multiple of MIC (superscript) [12]: b (1X MIC); cytological profile (FM4-64 / SYTO-9 staining) [13]: filamentous or short rods (spheroplasts) morphology (PG synthesis inhibitors); uptake of crystal violet compared with DMSO [14]: increased the uptake of crystal violet; 260 nm absorbing materials in supernatant compared with DMSO [15]: significantly (P < 0.05, Student’s t-test) increased; 280 nm absorbing materials in supernatant compared with DMSO [15]: significantly (P < 0.05, Student’s t-test) increased; Absorbance 280 nm of treated supernatant [15]: 2.78^a; Absorbance 260 nm of treated supernatant [15]: 3.99^a; minimal effective concentration [16]: 100 µM; intracellular APEC clearance concentration as multiple of MIC (superscript) ([16]; O2, Caco-2): c (4X MIC); concentration at which the SM significantly (P < 0.01) reduced intracellular APEC (superscript of t-statistic) [16]: c (2XMIC); minimal effective concentration [17]: 50 µM; intracellular APEC clearance concentration as multiple of MIC (superscript) [17]: b (2X MIC); concentration at which the SM significantly (P < 0.01) reduced intracellular APEC (superscript of t-statistic) [17]: b (1X MIC); minimal effective concentration [18]: ≤ 100 µM; ranking in clearing intracellular APEC ([18]; all tested serotypes and cells): most effective SMs in clearing intracellular APEC serotypes in all tested cells

**Q.** Which results are given for `COc1cc(CNCCc2ccc3ccccc3c2)ccc1OCC(O)CN1CCCC1` (stereo not drawn) [SM2]?
**A.** MBC relative to MIC [1]: identical to MIC; MIC [1]: 100 µM (≈ 43.5 µg/mL); MBC [1]: 100 µM (≈ 43.5 µg/mL); MBC [2]: 250 µM (≈ 109 µg/mL); MIC [2]: 200 µM (≈ 86.9 µg/mL); MBC [3]: 250 µM (≈ 109 µg/mL); MIC [3]: 200 µM (≈ 86.9 µg/mL); MBC [4]: 200 µM (≈ 86.9 µg/mL); MIC [4]: 100 µM (≈ 43.5 µg/mL); MBC [5]: 100 µM (≈ 43.5 µg/mL); MIC [5]: 100 µM (≈ 43.5 µg/mL); MBC [6]: 200 µM (≈ 86.9 µg/mL); MIC [6]: 100 µM (≈ 43.5 µg/mL); MBC [7]: 200 µM (≈ 86.9 µg/mL); MIC [7]: 200 µM (≈ 86.9 µg/mL); MBC [8]: 200 µM (≈ 86.9 µg/mL); MIC [8]: 100 µM (≈ 43.5 µg/mL); MBC [9]: 200 µM (≈ 86.9 µg/mL); MIC [9]: 100 µM (≈ 43.5 µg/mL); MBC [10]: 250 µM (≈ 109 µg/mL); MIC [10]: 200 µM (≈ 86.9 µg/mL); MBC [11]: 100 µM (≈ 43.5 µg/mL); MIC [11]: 100 µM (≈ 43.5 µg/mL); MBEC as multiple of MIC (superscript) [12]: b (1X MIC); cytological profile (FM4-64 / SYTO-9 staining) [13]: bright red foci at random positions throughout the cell indicating membrane defects (membrane pore formers); uptake of crystal violet compared with DMSO [14]: increased the uptake of crystal violet; 280 nm absorbing materials in supernatant compared with DMSO [15]: significantly (P < 0.05, Student’s t-test) increased; Absorbance 280 nm of treated supernatant [15]: 2.86^a; Absorbance 260 nm of treated supernatant [15]: 3.71; minimal effective concentration [16]: > 200 µM; concentration at which the SM significantly (P < 0.01) reduced intracellular APEC (superscript of t-statistic) [16]: b (1X MIC); minimal effective concentration [17]: 100 µM; intracellular APEC clearance concentration as multiple of MIC (superscript) [17]: a (1X MIC); concentration at which the SM significantly (P < 0.01) reduced intracellular APEC (superscript of t-statistic) [17]: a (0.5X MIC); minimal effective concentration [18]: ≥ 100 µM
